In ChEMBL document CHEMBL1201862, “PubChem BioAssay data set” (2004):
Activity calls are given as the source filed them.

Experiments:
[1] = NIH-3T3 fibroblast cytotoxicity, dose response, cytotoxicity control, cell-based, fluorescence, Alamar Blue, secondary assay (AID 2327); type: functional;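 also: NIH-3T3 mouse fibroblasts cultured with fluconazole at 8 µg/mL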
[2] = target: T1, RNA-binding protein pos-1 (Caenorhabditis elegans, UniProt G5EF15); assay: inhibitors of POS-1/mex-3 RNA binding, dose response, biochemical, fluorescence polarization (AID 1964);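 also: purified POS-1 fused to maltose binding protein made in E. coli; potency of compounds blocking POS-1 binding to fluorescent RNA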
T1 sequence (G5EF15 whole entry): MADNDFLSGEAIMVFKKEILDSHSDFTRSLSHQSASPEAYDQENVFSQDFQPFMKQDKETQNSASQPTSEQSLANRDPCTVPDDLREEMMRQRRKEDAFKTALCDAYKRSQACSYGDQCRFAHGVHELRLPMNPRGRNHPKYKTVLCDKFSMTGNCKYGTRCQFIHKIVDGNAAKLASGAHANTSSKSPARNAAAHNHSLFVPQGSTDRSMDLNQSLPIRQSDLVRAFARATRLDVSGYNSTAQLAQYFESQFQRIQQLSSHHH

[3] = C. albicans growth with fluconazole, confirmation, fluorescence, retest (AID 2467); type: functional, cell-based
[4] = Counterscreen for AddAB inhibitors: absorbance-based bacterial cell-based high throughput dose response assay for inhibitors of bacterial viability. [Related pubchem assays (depositor defined):AID435030, AID449728, AID449731, AID488942, AID488955, AID488956]; type: functional
[5] = target: Dual specificity tyrosine-phosphorylation-regulated kinase 1A (Rattus norvegicus, UniProt Q63470); type: biochemical, Homo sapiens
[6] = target: Polyadenylate-binding protein 1 (Homo sapiens, UniProt P11940); assay: PABP1 MLLE–PAM2 binding inhibitor potency, dose response, biochemical, fluorescence polarization, FITC-PAM2 peptide (AID 602259); type: functional; conditions: read-out: IC50_Mean
Polyadenylate-binding protein 1, sequence (P11940 whole entry): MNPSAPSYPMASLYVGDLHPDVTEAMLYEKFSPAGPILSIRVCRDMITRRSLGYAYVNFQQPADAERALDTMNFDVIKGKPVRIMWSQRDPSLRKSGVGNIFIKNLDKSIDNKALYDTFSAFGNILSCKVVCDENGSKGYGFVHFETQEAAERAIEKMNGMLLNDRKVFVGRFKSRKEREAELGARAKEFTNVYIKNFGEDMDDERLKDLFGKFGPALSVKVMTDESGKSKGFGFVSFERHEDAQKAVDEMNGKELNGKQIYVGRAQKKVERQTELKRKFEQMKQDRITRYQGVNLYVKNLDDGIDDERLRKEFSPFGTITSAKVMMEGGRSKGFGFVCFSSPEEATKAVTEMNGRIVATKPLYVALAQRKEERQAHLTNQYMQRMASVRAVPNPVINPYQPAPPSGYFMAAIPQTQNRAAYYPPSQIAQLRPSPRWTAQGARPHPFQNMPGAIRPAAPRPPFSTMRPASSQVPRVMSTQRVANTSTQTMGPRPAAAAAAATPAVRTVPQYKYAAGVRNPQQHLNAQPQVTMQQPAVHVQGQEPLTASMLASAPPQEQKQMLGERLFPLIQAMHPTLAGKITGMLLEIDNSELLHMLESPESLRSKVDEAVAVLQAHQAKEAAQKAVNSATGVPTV

SMILES: CN1CCc2cc3c(c4c2[C@H]1[C@H](O)c1ccccc1-4)OCO3
- EC50 [1]: 75.6 µM (active)
- EC50 [2]: 11.9 µM (active)
- EC50 [3]: 2.74 µM (active)
- IC50 [4]: > 119 µM (inactive)
- AC50 [5]: 0.877 µM (active)
- IC50 [6]: 25.8 µM (inactive)
